Experimental data: ChEMBL document CHEMBL1125521, “Oxygen isosteric derivatives of 3-(3-hydroxyphenyl)-N-n-propylpiperidine” (J Med Chem, 1992)
The source made the active and inactive calls. No cut-off for these calls is given here.

Tests used:
[1] = target: D(2) dopamine receptor (Rattus norvegicus, UniProt P61169); test: Ability to displace [3H]spiroperidol, from dopamine receptor D2 specific binding sites of rat striatal membranes; set-up: species or system Striatum, Membrane
[2] = target: D(2) dopamine receptor (Rattus norvegicus) (UniProt P61169); test: Displacement of [3H]spiroperidol from dopamine receptor D2 binding sites of rat striatal membranes; inactive; type: cell membranes; details: Membrane
Sequence of D(2) dopamine receptor (Rattus norvegicus) (P61169 whole entry): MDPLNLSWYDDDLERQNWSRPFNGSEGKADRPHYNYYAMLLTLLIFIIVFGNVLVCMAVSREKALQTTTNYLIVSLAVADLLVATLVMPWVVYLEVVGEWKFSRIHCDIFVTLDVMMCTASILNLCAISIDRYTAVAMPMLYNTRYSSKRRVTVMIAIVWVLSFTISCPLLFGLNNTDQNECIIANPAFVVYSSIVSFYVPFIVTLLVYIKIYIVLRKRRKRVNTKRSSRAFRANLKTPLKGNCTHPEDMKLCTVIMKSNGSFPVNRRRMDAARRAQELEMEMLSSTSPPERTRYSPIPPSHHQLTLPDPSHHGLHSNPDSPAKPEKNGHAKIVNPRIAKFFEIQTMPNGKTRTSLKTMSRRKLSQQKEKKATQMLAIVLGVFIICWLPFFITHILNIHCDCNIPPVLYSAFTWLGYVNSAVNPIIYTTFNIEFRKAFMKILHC

[3] = target: Serotonin 1 (5-HT1) receptor (Rattus norvegicus, UniProt P28564+P30940+P19327+P28565); test: Compound was evaluated for the inhibition of [3H]5-HT (concentration of 12 nM) specific binding to rat hippocampus; type: tissue-based

Sequence of D(2) dopamine receptor (P61169 whole entry): as above

Row | SMILES | IC50 [1] [µM] | Activity [2] | IC50 [3] [µM]
1 | CCCN1CCCC(c2ccccc2OC)C1 (stereo not given) | 8 |  | 
2 | CCCN1CCOC(c2cccs2)C1 (stereo not given) |  | inactive | 
3 | CCCN1CCOC(c2ccccc2O)C1 (stereo not given) |  | inactive | 
4 | CCCN1CCOC(c2cccc(Cl)c2)C1 (stereo not given) |  | inactive | 5
5 | CCCN1CCOC(c2ccccc2Cl)C1 (stereo not given) |  | inactive | 3
6 | CCCN1CCOC(c2cccc([N+](=O)[O-])c2)C1 (stereo not given) |  | inactive | 
7 | CCCN1CCOC(c2cccc(OC)c2)C1 (stereo not given) |  | inactive | 1
8 | CCCN1CCOC(c2cccc(O)c2)C1 (stereo not given) |  | inactive | 
9 | CCCN1CCOC(c2ccsc2)C1 (stereo not given) |  | inactive | 
10 | CCCN1CCOC(c2ccccc2OC)C1 (stereo not given) |  | inactive | 1
11 | CCCN1CCCC(c2ccccc2O)C1 (stereo not given) | 7 |  | 
